Measurements published in publication PMC11411626 (2024).
Values belong to the compound of their own block, whether it stands above or below them.

How the values were obtained:
[1] = system: CAG RNA oligonucleotide (RNA, repeat) GCAGCAGCUUCGGCAGCAGC; test: spectrophotometric titration; conditions: 2a 5 μM, RNA/2a 0–4; SpecFit 1:1 fit
[2] = system: CUG RNA motif (RNA, repeat) GGUCGCUGCUGCACGAAAGUGCUGCUGCGACC; test: fluorescence well-plate screening; conditions: buffer pH 7, 5 μM ligand, 1 equiv. RNA
[3] = system: CAG RNA oligonucleotide (RNA, repeat) GCAGCAGCUUCGGCAGCAGC; test: fluorescence well-plate screening; conditions: buffer pH 7, 5 μM ligand, 1 equiv. RNA
[4] = no pronounced interaction, small fluorescence change

SMILES: COc1ccc(/C=C2\Oc3ccccc3C2=O)cc1
binding [3]: no

SMILES: COc1cc(/C=C2\Nc3ccccc3C2=O)ccc1OCCCN(C)C
binding [3]: no

SMILES: O=C1/C(=C/c2c3ccccc3cc3ccccc23)Oc2ccccc21
binding ([3]; 21% light-up, aggregation prevented titration): yes | binding ([2]; excitation 450 nm, almost no interaction): no

SMILES: N=C(N)c1ccc(-c2ccc(-c3ccc(C(=N)N)cc3)o2)cc1
binding ([3]; 57% quenching): yes

Now from value to compound:

K [1]: (1.4 ± 0.1) × 10^5 M^-1 | binding ([2]; absent or very weak interaction): no
SMILES: CN(C)CCOc1ccc(/C=C2\Oc3cc(OCCN(C)C)ccc3C2=O)cc1

binding [3, 4]: no
SMILES: CN(C)CCOc1ccc(/C=C2\Oc3cc(O)ccc3C2=O)cc1

binding [3, 4]: no
SMILES: COc1ccc(/C=C2\Oc3cc(OCCN(C)C)ccc3C2=O)cc1
